According to US10787426B2, “Method of treating autism spectrum disorders using piperazine-1-carboxamidine or pharmaceutically acceptable salt thereof” (NEUROVENTI, priority 2016, dated 2020):

Legend:
Assay type in all cases: in vivo, Sprague-Dawley (SD) rats
[1] = tested on: valproic acid-induced autism rat models; test: Open field test (hyperactivity and impulsive behavior); settings: 25 or 50 mg/kg, intraperitoneal once a day, open field 10 minutes
Protocol: (§1) In particular, valproic acid was subcutaneously injected into female adult Sprague-Dawley (SD) rats on day 12 of gestation, at a dose of 450 mg/kg and in an administration amount of 10 ml/kg, and then the SD rats gave birth to babies. When the born babies were 21 days old, they were grouped according to body weight and selected as autism rat models. As a group administered a solvent, on day 12 of gestation, female adult SD rats were administered a saline solution instead of valproic acid, at the same dose and in the same administration amount.
(§2) The autism rat models prepared according to Example <1-1> were intraperitoneally administered piperazine-1-carboxamidine 24 days after birth once a day at a predetermined time. At this time, piperazine-1-carboxamidine was administered at a dose of […], 12.5 mg/kg, 25 mg/kg, or 50 mg/kg, and in an amount of 10 ml/kg. The administration process was repeated until all the experiments were completed, and was performed 30 minutes before experiments, in the case of behavioral experiments.
To confirm an effect of piperazine-1-carboxamidine on treating autism spectrum disorder in autism rat models, general locomotor activity of the autism rat models was evaluated by an open field test for assaying enhancement and deterioration of motor functions, sedation, excitement, anxiety, depression, the degree of avoidance, and toxicity. […]

[2] = tested on: valproic acid-induced autism rat models; test: Repetitive behavior test (grooming time); settings: 12.5 mg/kg or more, intraperitoneal once a day; grooming time over 10 minutes; compared to autism-induced solvent control; FIG. 3
Protocol: as §1
The autism rat models prepared according to Example <1-1> were intraperitoneally administered piperazine-1-carboxamidine 24 days after birth once a day at a predetermined time. […]
To confirm an autism therapeutic effect of piperazine-1-carboxamidine in valproic acid-induced autism rat models based on these findings, a grooming level enhancement effect was evaluated in the autism rat models.
In particular, the autism rat models of Example <1-2>, which were administered piperazine-1-carboxamidine and aged between 33 days and 38 days, were placed in a cage (42 cm×29 cm×19 cm) without straw litter and adapted thereto for 10 minutes. Thereafter, the grooming time of the autism rat models was measured for 10 minutes to confirm the degree of repetitive behavior. […]

[3] = tested on: valproic acid-induced autism rat models; test: Social interaction test (three-compartment box, stranger vs empty cage); settings: 6.25 mg/kg or more, intraperitoneal once a day, 10 minutes test, compared to solvent control (VPA), FIG. 2A
Protocol: as §1, §2
To verify an effect of piperazine-1-carboxamidine on treating autism spectrum disorder in valproic acid-induced autism rat models, changes in social interaction according to whether piperazine-1-carboxamidine was administered or not were examined (Crawley, Jacqueline N. Mental retardation and developmental disabilities research reviews 10.4 (2004): 248-258). […]

[4] = tested on: valproic acid-induced autism rat models; test: Electroshock-induced seizure threshold (CC50); settings: 25 mg/kg, intraperitoneal once a day; Litchfield-Wilcoxon method; versus valproic acid-exposed solvent control; FIG. 5
Protocol: as §1, §2
To confirm an effect of piperazine-1-carboxamidine on treating autism spectrum disorder in autism rat models, electroshock-induced seizure susceptibility was evaluated in autism rat models (Park, Hyung Geun, et al. European journal of pharmacology 574.2, 2007: 112-119; Browning, R. A., et al. Epilepsy research 6.1, 1990: 1-11). […]

[5] = tested on: valproic acid-induced autism rat models; test: Social preference test (familiar side vs novel side); settings: 12.5 mg/kg or 25 mg/kg, intraperitoneal once a day, FIG. 2B
Protocol: as §1, §2
To further verify an effect of piperazine-1-carboxamidine on treating autism spectrum disorder in valproic acid-induced autism rat models, an experiment for confirming social preference was carried out.
In particular, after social interest was confirmed in Example <2-1>, another identical type of rat were placed in the empty cage at one end of the box structure, and a social interaction experiment for the autism rat models as experimental groups was conducted for 10 minutes. The cage in which rat were placed in Example <2-1> was regarded as a familiar side, the cage in which new rat were placed was regarded as a novel side, and the degree of interest expressed by the autism rat models as experimental groups was confirmed using the EthoVision system by measuring residence time for each case. A significance test was performed using two-way ANOVA, followed by a Bonferroni's post hoc test.

[6] = 10 minutes test, versus autism-induced solvent control

N=C(N)N1CCNCC1 [piperazine-1-carboxamidine]
emotional disturbance-related movement in the central region (ratio of moving distance in central region to total) ([1]; FIG. 4B): reduced to levels of the normal controls
degree of hyperactivity (total moving distance) ([1]; versus autism-induced solvent control, FIG. 4A): significantly decreased
degree of grooming (grooming time, repetitive behavior) [2]: decreased
degree of interest in new rat (strangers), residence time ([3]; 30 minutes before test): significantly increased
degree of interest in the new empty side, residence time [3]: decreased
CC50 (convulsive current 50, electroshock-induced seizure threshold) [4]: significantly increased
level of interest in the familiar side, residence time [5, 6]: decreased
level of interest in the novel side, residence time [5, 6]: increased
social preference patterns ([5]; relative to normal controls): restored to levels similar to those of the normal controls
